In patent US12453708B2, “Aminonaphthoquinone compounds for treatment and/or prevention of fibrosis diseases” (CALGENT BIOTECHNOLOGY CO., LTD., priority 2015, dated 2025):

Tested on: BLM-induced lung fibrosis in mice
Test: Bleomycin (BLM)-induced lung fibrosis mice model
Assay type: in vivo, C57BL/6JNarl mice
Conditions: BLM mice; for fibrosis score, Mean ± SEM: H&E histology day 39
Protocol: FIGS. 8 (A) and (B) show the effect of L056 effect on fibrosis score of BLM-induced lung fibrosis in mice. C57BL/6 mice (8 weeks) were treated with bleomycin (BLM, 0.05 U/50 μl) or PBS (50 μl) by endotracheal administration. […] On day 39, the mice were sacrificed and, the histologic analysis of lung tissue was performed by hematoxylin-eosin (H&E) staining (original magnification, x100). […] (A), Histology fibrosis score plot; (B), H&E staining plot.
FIG. 9 (A) to (D) show the inhibitory effects on pro-fibrogenic mediators, collagen, CTGF, fibronectin and […], respectively. (A), H&E staining plot for collagen; (B), H&E staining plot for CTGF; (C), H&E staining plot for fibronectin; (D), H&E staining plot for α-SMA.
C57BL/6JNarl mice (8 weeks) were treated with bleomycin (BLM, 0.05 U/50 μl) or PBS (50 μl) by endotracheal administration. […] On day 39, the mice were sacrificed, and the histologic analysis of lung tissue was performed by hematoxylin-eosin (H&E) staining (original magnification, x100).

[1] = 200 mg (mg/kg/day, q.d., oral, days 10 to 38)
[2] = 60 mg (oral, q.d., days 10 to 38)

Structure (SMILES) | Efficacy % (reduction of fibrosis score) [1] [%] | fibrosis score, Mean ± SEM [1] | Efficacy % (reduction of fibrosis score) [2] [%] | fibrosis score, Mean ± SEM [2]
Cc1ccc(=O)n(-c2ccccc2)c1 [Esbriet, pirfenidone, reference compound] | 34.08 | 3.91 ± 0.21 | – | –
COC(=O)c1ccc2c(c1)NC(=O)/C2=C(\Nc1ccc(N(C)C(=O)CN2CCN(C)CC2)cc1)c1ccccc1 [OFEV, nintedanib, reference compound] | – | – | 41.66 | 3.62 ± 0.30
